Laboratory results from ChEMBL document CHEMBL4257573, “Synthesis, modification, and cytotoxic evaluation of 2,3-secotriterpenic β-ketoesters” (Bioorg Med Chem Lett, 2018).

Experiments:
[1] = Selectivity index, ratio of IC50 for HEK293 cells to IC50 for human MS cells; type: toxicity; details: HEK293 cells versus MS cells, read-out: Ratio IC50
[2] = Cytotoxicity against human MS cells assessed as reduction in cell viability after 72 hrs by MTT assay; type: functional, cell-based
[3] = Selectivity index, ratio of IC50 for HEK293 cells to IC50 for human Hep2 cells; type: toxicity; details: HEK293 cells versus Hep2 cells, read-out: Ratio IC50
A549 = test: Cytotoxicity against human A549 cells assessed as reduction in cell viability after 72 hrs by MTT assay; type: functional, cell-based; details: A549, 72 h
MCF7 = test: Cytotoxicity against human MCF7 cells assessed as reduction in cell viability after 72 hrs by MTT assay; type: functional, cell-based; details: MCF7, 72 h
HEp-2 = test: Cytotoxicity against human Hep2 cells assessed as reduction in cell viability after 72 hrs by MTT assay; type: functional, cell-based; details: HEp-2, 72 h
HCT-116 = test: Cytotoxicity against human HCT116 cells assessed as reduction in cell viability after 72 hrs by MTT assay; type: functional, cell-based; details: HCT-116, 72 h
HEK293 = test: Cytotoxicity against HEK293 cells assessed as reduction in cell viability after 72 hrs by MTT assay; type: cell-based; details: Homo sapiens, HEK293, 72 h
[4] = Selectivity index, ratio of IC50 for HEK293 cells to IC50 for human MCF7 cells; type: toxicity; details: HEK293 cells versus MCF7 cells, read-out: Ratio IC50
RD = test: Cytotoxicity against human RD cells assessed as reduction in cell viability after 72 hrs by MTT assay; type: functional, cell-based

Compound	selectivity ratio [1]	IC50 [2]	selectivity ratio [3]	IC50 (A549)	IC50 (MCF7)	IC50 (HEp-2)	IC50 (HCT-116)	IC50 (HEK293)	selectivity ratio [4]	IC50 (RD)
C=C(C=O)[C@@H]1CC[C@]2(C(=O)OC)CC[C@]3(C)[C@H](CC[C@@H]4[C@]5(C)[C@@H](CC[C@]43C)C(C)(C)[C@@](O)(CO)[C@H]5C#N)[C@@H]12	4.08 to 20.2	12.3 µM	4.08 to 20.2	28.8 µM	8.39 µM	23.7 µM	9.32 µM	118 µM	4.08 to 20.2	5.83 µM
CC1(C)CC[C@]23CC[C@]4(C)[C@H](CC[C@@H]5[C@@](C)(CC#N)[C@H](C(C)(C)C(=O)COC(=O)CC(=O)CC(=O)O)CC[C@]54C)[C@H]2[C@H]1OC3		87.5 µM		69.5 µM	> 100 µM	> 100 µM	> 100 µM			50.1 µM
CC1(C)CC[C@]23CC[C@]4(C)[C@H](CC[C@@H]5[C@@](C)(CC#N)[C@H](C(C)(C)C(=O)CO)CC[C@]54C)[C@H]2[C@H]1OC3		> 100 µM		> 100 µM	> 100 µM	> 100 µM	> 100 µM			> 100 µM
CC1(C)CC[C@]23CC[C@]4(C)[C@H](CC[C@@H]5[C@@](C)(CC#N)[C@H](C(C)(C)C(=O)COC=O)CC[C@]54C)[C@H]2[C@H]1OC3		> 100 µM		> 100 µM	> 100 µM	> 100 µM	> 100 µM			> 100 µM
C=C(CO)[C@@H]1CC[C@]2(C(=O)OC)CC[C@]3(C)[C@H](CC[C@@H]4[C@@](C)(CC#N)[C@H](C(C)(C)C(=O)COC(C)=O)CC[C@]43C)[C@@H]12		24 µM		50.7 µM	10.3 µM	81.2 µM	43.7 µM			33.4 µM
CC1(C)CC[C@]23CC[C@]4(C)[C@H](CC[C@@H]5[C@@](C)(CC#N)[C@H](C(C)(C)C(=O)COC(=O)c6cccnc6)CC[C@]54C)[C@H]2[C@H]1OC3		> 100 µM		> 100 µM	> 100 µM	> 100 µM	> 100 µM			> 100 µM
CC1(C)CC[C@]23CC[C@]4(C)[C@H](CC[C@@H]5[C@@](C)(CC#N)[C@H](C(C)(C)C(=O)COC(=O)CCC(=O)O)CC[C@]54C)[C@H]2[C@H]1OC3		> 100 µM		> 100 µM	> 100 µM	> 100 µM	> 100 µM			> 100 µM
C=C(C=O)[C@@H]1CC[C@]2(C(=O)OC)CC[C@]3(C)[C@H](CC[C@@H]4[C@@](C)(CC#N)[C@H](C(C)(C)C(=O)COC(=O)c5cccnc5)CC[C@]43C)[C@@H]12	1.47 to 8.45	8.27 µM	1.47 to 8.45	40.3 µM	35 µM	29.5 µM	7.03 µM	59.4 µM	1.47 to 8.45	8.98 µM
CC1(C)CC[C@]23CC[C@]4(C)[C@H](CC[C@@H]5[C@@](C)(CC#N)[C@H](C(C)(C)C(=O)COC(=O)CCCCCCCCC(=O)O)CC[C@]54C)[C@H]2[C@H]1OC3		> 100 µM		> 100 µM	> 100 µM	> 100 µM	> 100 µM			> 100 µM
CC(C)(CC(=O)OCC(=O)C(C)(C)[C@@H]1CC[C@]2(C)[C@H](CC[C@@H]3[C@H]4[C@H]5OC[C@@]4(CCC5(C)C)CC[C@]32C)[C@@]1(C)CC#N)C(=O)O		> 100 µM		> 100 µM	> 100 µM	> 100 µM	> 100 µM			> 100 µM
CC(=O)Oc1ccccc1C(=O)OCC(=O)C(C)(C)[C@@H]1CC[C@]2(C)[C@H](CC[C@@H]3[C@H]4[C@H]5OC[C@@]4(CCC5(C)C)CC[C@]32C)[C@@]1(C)CC#N		> 100 µM		> 100 µM	> 100 µM	> 100 µM	> 100 µM			> 100 µM
C=C(CO)[C@@H]1CC[C@]2(C(=O)OC)CC[C@]3(C)[C@H](CC[C@@H]4[C@@](C)(CC#N)[C@H](C(C)(C)C(O)CO)CC[C@]43C)[C@@H]12 (some centres not stated)		> 100 µM		> 100 µM	> 100 µM	> 100 µM	> 100 µM			72.4 µM
CC1(C)CC[C@]23CC[C@]4(C)[C@H](CC[C@@H]5[C@@](C)(CC#N)[C@H](C(C)(C)C(=O)C(Cl)Cl)CC[C@]54C)[C@H]2[C@H]1OC3		24.7 µM		35.2 µM	10.8 µM	> 100 µM	13.2 µM			11.3 µM
CC1(C)CC[C@]23CC[C@]4(C)[C@H](CC[C@@H]5[C@]6(C)[C@@H](CC[C@]54C)C(C)(C)[C@@](O)(CO)[C@H]6C#N)[C@H]2[C@H]1OC3		> 100 µM		> 100 µM	> 100 µM	> 100 µM	> 100 µM			> 100 µM
CC1(C)CC[C@]23CC[C@]4(C)[C@H](CC[C@@H]5[C@@](C)(CC#N)[C@H](C(C)(C)C(O)CO)CC[C@]54C)[C@H]2[C@H]1OC3 (some centres not stated)		38 µM		> 100 µM	59.8 µM	> 100 µM	81.9 µM			> 100 µM
C=C(C=O)[C@@H]1CC[C@]2(C(=O)OC)CC[C@]3(C)[C@H](CC[C@@H]4[C@@](C)(CC#N)[C@H](C(C)(C)C(=O)COC(=O)/C=C/c5ccccc5)CC[C@]43C)[C@@H]12	1.84 to 50.3	22 µM	1.84 to 50.3	> 100 µM	8.54 µM	84.8 µM	13.2 µM	184 µM	1.84 to 50.3	3.65 µM
CC(=O)OCC(=O)C(C)(C)[C@@H]1CC[C@]2(C)[C@H](CC[C@@H]3[C@H]4[C@H]5OC[C@@]4(CCC5(C)C)CC[C@]32C)[C@@]1(C)CC#N		> 100 µM		> 100 µM	> 100 µM	> 100 µM	> 100 µM			> 100 µM
CC1(C)CC[C@]23CC[C@]4(C)[C@H](CC[C@@H]5[C@@](C)(CC#N)[C@H](C(C)(C)C(=O)COC(=O)/C=C/c6ccccc6)CC[C@]54C)[C@H]2[C@H]1OC3		> 100 µM		> 100 µM	> 100 µM	> 100 µM	28.5 µM			44.3 µM
CC1(C)CC[C@]23CC[C@]4(C)[C@H](CC[C@@H]5[C@@](C)(CC#N)[C@H](C(C)(C)C(=O)[C@@H](Cl)Br)CC[C@]54C)[C@H]2[C@H]1OC3		24.7 µM		35.2 µM	10.8 µM	> 100 µM	13.2 µM			11.3 µM
C=C(C=O)[C@@H]1CC[C@]2(C(=O)OC)CC[C@]3(C)[C@H](CC[C@@H]4[C@@](C)(CC#N)[C@H](C(C)(C)C(=O)COC=O)CC[C@]43C)[C@@H]12		49.1 µM		> 100 µM	30 µM	78.9 µM	79.8 µM			49.4 µM
